Laboratory results reported in patent US6984520B1, “Bioassay for thyroid stimulating antibodies” (University of Wales College of Medicine, priority 1997, dated 2006).

How the values were obtained:
human TSH-R [1] = biological target: T1, human TSH-R (Homo sapiens, UniProt P16473); assay: luminescent bioassay: light output of lulu 1 cells (JP09 CHO cells expressing human TSH-R, transfected with cAMP-luciferase); assay type: cell-based; settings: concentration as in row: TSH 1 mU/ml, TSAb (90/672) 10 mlU/ml, Forskolin 10^-5M
T1 construct: a pSVL vector containing the coding region of human TSH-R; expressed in transfected cells; host or cells: CHO-K1 clone JP09 (pSVL-hTSHR), further transfected with cAMP-luciferase to give lulu 1 cells
Method: Culture medium for the cells was RPMI; 10% foetal calf serum (FCS); 1% glutamine; 1% pyruvate; 2% penicillin/streptomycin (and 2.5 μg/ml puromycin, when amplifying cells for assay). 96 well plates were seeded with 5×10^4 cells prepared according to Example 1 and cultured overnight (approximately 16 hours) at 37° C. in a water-saturated incubator. They were then cultured for a second night in medium containing 10% charcoal stripped calf serum instead of FCS (available from Gibco). Basal light output was measured, in triplicate wells, in the presence of 100 μl of the medium containing 10% charcoal stripped serum. […] The final result was expressed as relative light units (RLU) obtained by the ratio of standard:basal or test:basal.
Following the incubation period, supernatants were removed from the wells and the cells are washed twice in phosphate buffered saline. Light output was measured using a commercially-available kit from the Promega Corporation, no. […]
The selected clones were cultured overnight in medium with 10% charcoal-stripped calf serum (Sigma) in place of FCS, followed by 4 hours' incubation with varying concentrations of bovine TSH. Light output was measured by luciferase reporter assay (Promega) in a Berthold luminometer. Results were calculated as the ratio of light output in the presence of TSH:light output in the absence of TSH and expressed as relative light units (RLUs). […]

human TSH-R [2] = biological target: T1, human TSH-R; assay: traditional bioassay: cAMP released into culture medium of lulu 1 cells, measured by RIA; assay type: cell-based; settings: NaCl-free Hank's medium, 2 mM IBMX, TSH 1 mU/ml, TSAb (90/672) 10 mlU/ml
Method: 44 of the GD sera described above, (35 TBII (TSH-R) positive) and the TSAb standard, were also assayed in a traditional bioassay in which CAMP released into the culture medium was measured by RIA. Lulu 1 were seeded in 96 well plates and the assay was performed in 100 μl/well NaCl-free Hank's medium, containing 2 mM IBMX and 10 μl individual GD or pooled euthyroid serum. CAMP was measured by the CAMP [^3H] assay system (Amersham) as described by Ludgate et al in Exp Clin Endo 100 73–4.

T1 sequence (P16473 21-764): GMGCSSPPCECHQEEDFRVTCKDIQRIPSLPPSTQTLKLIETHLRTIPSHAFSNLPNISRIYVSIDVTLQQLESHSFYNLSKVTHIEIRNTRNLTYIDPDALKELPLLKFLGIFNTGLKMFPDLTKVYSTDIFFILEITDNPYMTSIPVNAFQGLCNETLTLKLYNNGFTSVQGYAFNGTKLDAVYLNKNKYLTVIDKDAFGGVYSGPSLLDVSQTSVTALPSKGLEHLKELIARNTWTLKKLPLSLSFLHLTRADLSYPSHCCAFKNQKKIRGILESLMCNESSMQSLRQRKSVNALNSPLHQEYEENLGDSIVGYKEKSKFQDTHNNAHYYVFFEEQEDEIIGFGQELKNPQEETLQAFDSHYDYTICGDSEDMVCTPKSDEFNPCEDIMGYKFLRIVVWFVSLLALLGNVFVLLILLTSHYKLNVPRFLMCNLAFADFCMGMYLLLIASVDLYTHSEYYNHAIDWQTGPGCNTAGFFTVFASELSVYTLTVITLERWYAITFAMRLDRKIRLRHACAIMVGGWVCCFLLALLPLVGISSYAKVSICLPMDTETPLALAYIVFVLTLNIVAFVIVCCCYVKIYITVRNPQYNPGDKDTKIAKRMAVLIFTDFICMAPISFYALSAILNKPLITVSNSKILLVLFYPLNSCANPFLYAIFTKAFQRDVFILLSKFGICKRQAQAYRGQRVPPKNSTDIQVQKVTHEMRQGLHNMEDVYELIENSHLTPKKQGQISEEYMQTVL

Substance: thyrotropin [TSH]
- RLUs (mean luminometer readings (n=3) with background light emission subtracted) (human TSH-R [1]): 1293 RLUs
- pmole cAMP (mean, n=2) (human TSH-R [2]): 9.4 pmol
